# Experimental data reported in patent publication US12707555B2, “Low-temperature dielectric barrier discharge devices” (The Trustees of Princeton University, priority 2022, dated 2026).
# Columns and labels:
# bacterial load = conditions: cited from earlier work
# E. coli 10-beta = test: Quantitative disinfection of bacteria dried on glass coverslips (CFU count, log reduction); format: cell-based; conditions: 3% H2O2 alone, flex-DBD off; R=0.97
# Experimental: (§1) To quantify disinfection, bacteria (E. coli 10-beta, Standard E. coli AMS 198 or OP50-GFP) were inoculated on glass coverslips (25 mm diameter). Four droplets of 5 μl each (20 μl) of the bacterial culture (starting concentration 10^8 CFU/ml) were placed onto each coverslip and allowed to dry for approximately 40 min. The slides with dry bacterial culture were then placed onto the flex-DBD with the inoculated side directly in contact with the discharge. The coverslips were treated for 10, 30, 90, and 270 s. At the end of the treatment time, the treated coverslip was placed in a centrifuge tube with 7.5 ml LB, enough to cover the coverslip. The tubes were vortexed on a medium setting for 20 s to recover the bacteria from the treated surface but not damage the cell membrane. The resulting bacterial suspension was spread on LB-agar plates and incubated for 24 h. Cultures were then counted and the number used to calculate the logarithmic reductions of bacterial concentration. […] Pieces of material were disinfected by soaking for 5 min in a 70% solution of isopropyl alcohol then dried thoroughly for at least 30 min. […] An inoculated glass coverslip was placed on top of the solution with the bacteria in contact with the solution. […] Statistical significance between pairs of treatments was evaluated using repeated measures ANOVA.
# [1] = tested on: E. coli AMS 198 (ATCC-11229); test: as above; format: cell-based; conditions: 3% H2O2 alone, flex-DBD off; R=0.947
# Experimental: as §1
# E. coli = test: Disinfection of inoculated coverslips with flex-DBD in conjunction with 3% H2O2 solution (strain not stated at the result); format: cell-based; conditions: H2O2 with only UV radiation from flex-DBD (UV filter); after the first 30 s
# Experimental: Pieces of material were disinfected by soaking for 5 min in a 70% solution of isopropyl alcohol then dried thoroughly for at least 30 min. […] An inoculated glass coverslip was placed on top of the solution with the bacteria in contact with the solution. At the end of each treatment, the coverslip and the cloth were dropped into a centrifuge tube with 7.5 ml of LB solution. The same recovery and plating procedure was used in all experiments. […] To block all the output from the plasma except light, a thin film filter transparent down to 190 nm was placed between the DBD and H2O2. […] When possible, ImageJ (1.53c) software was used to count CFUs, otherwise the counting was done visually. […] All the experiments were performed in triplicates of samples and plates. Statistical significance between pairs of treatments was evaluated using repeated measures ANOVA.
compound,measurement,setting,value
"OO [H2O2, hydrogen peroxide]",reduction,bacterial load; H2O2 droplets added into a corona discharge,6 log10
same,reduction in the bacterial load,bacterial load; H2O2 vapor added to the plasma effluent,greater than 6 log10
same,"time for 1 log10 reduction, D",E. coli 10-beta,139±5 s
same,"time for 1 log10 reduction, D",[1],135±5 s
same,"time for 1 log10 reduction, D",E. coli,> 250 s
